Consider 1 compound from patent US20260069588A1, “VEPDEGESTRANT FOR USE IN TREATING CANCER” (Arvinas Operation, Inc., priority 2022, published 2026).

One data set concerns the target GR (Homo sapiens, UniProt P04150). As to the kind of experiment: Secondary pharmacodynamics binding, GR. The note with it: in vitro.
The next data set concerns Caco-2 cells. As to the kind of experiment: Caco-2 bidirectional permeability. The data set is classed as in vitro ADME. The note with it: 11.25 μM. For orientation: Passage across Caco-2 layers is used to estimate intestinal permeability.
The nature of data set [1]: Caco-2 bidirectional permeability. The note with it: human, Caco-2, 1.125 pM. The data set is classed as in vitro ADME.
For data set [2], the system named is cultured human peripheral blood lymphocytes. Description: In vitro micronucleus assay. It counts as cell-based. The note with it: 3+21 hours ± S9; 24+24 hours −S9. As to the method: Compound A was tested in a GLP-compliant in vitro micronucleus assay.
Data set [3] can be described thus: Preclinical PK after PO or intravenous dose. On the set-up: species or system mouse, dog, and monkey. The note with it: rat, in vivo.
Data set [4] in a line: Single-dose oral TK and tolerability study in beagle dogs. The note with it: dog. It counts as in vivo. As to the method:
A lead-in single-dose TK and tolerability study conducted prior to the telemetry study indicated approximately dose-proportional increase in exposure between 200 and 400 mg/kg in the dog.

A further data set deals with Aiolos (Homo sapiens, UniProt Q9UKT9). Description: Cereblon neomorphic substrate degradation, Aiolos. The note with it: in vitro. The data set is classed as cell-based. The source says:
These drugs bind to cereblon and promote the degradation of novel (neomorphic) substrates.

A short description of data set [5]: Solubility in phosphate buffer. The data set is classed as physicochemical. The note with it: aqueous buffer; phosphate buffer at pH 7.4.
For data set [6] the following is noted: rat, in vivo.
The subject of the next data set is reticulocytes. As to the kind of experiment: Rat micronucleus test. It counts as in vivo. The note with it: 400, 800, 1600 mg/kg/day, two days.

Converted amounts (≈) assume the structure as drawn.

Chain of Aiolos (Q96SW2 whole entry partner): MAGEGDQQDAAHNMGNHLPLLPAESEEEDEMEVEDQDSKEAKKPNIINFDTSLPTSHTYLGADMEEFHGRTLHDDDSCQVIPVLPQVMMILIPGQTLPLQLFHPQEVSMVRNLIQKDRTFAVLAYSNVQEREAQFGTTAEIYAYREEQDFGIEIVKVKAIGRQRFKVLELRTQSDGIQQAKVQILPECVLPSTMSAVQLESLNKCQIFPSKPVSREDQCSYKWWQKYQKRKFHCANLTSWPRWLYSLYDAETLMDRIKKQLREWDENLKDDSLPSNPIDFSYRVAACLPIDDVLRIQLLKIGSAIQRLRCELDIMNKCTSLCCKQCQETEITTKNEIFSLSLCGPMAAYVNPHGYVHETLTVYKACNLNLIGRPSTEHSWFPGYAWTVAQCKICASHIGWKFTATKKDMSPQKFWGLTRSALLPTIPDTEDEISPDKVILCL
Chain of Aiolos (Q16531 whole entry partner): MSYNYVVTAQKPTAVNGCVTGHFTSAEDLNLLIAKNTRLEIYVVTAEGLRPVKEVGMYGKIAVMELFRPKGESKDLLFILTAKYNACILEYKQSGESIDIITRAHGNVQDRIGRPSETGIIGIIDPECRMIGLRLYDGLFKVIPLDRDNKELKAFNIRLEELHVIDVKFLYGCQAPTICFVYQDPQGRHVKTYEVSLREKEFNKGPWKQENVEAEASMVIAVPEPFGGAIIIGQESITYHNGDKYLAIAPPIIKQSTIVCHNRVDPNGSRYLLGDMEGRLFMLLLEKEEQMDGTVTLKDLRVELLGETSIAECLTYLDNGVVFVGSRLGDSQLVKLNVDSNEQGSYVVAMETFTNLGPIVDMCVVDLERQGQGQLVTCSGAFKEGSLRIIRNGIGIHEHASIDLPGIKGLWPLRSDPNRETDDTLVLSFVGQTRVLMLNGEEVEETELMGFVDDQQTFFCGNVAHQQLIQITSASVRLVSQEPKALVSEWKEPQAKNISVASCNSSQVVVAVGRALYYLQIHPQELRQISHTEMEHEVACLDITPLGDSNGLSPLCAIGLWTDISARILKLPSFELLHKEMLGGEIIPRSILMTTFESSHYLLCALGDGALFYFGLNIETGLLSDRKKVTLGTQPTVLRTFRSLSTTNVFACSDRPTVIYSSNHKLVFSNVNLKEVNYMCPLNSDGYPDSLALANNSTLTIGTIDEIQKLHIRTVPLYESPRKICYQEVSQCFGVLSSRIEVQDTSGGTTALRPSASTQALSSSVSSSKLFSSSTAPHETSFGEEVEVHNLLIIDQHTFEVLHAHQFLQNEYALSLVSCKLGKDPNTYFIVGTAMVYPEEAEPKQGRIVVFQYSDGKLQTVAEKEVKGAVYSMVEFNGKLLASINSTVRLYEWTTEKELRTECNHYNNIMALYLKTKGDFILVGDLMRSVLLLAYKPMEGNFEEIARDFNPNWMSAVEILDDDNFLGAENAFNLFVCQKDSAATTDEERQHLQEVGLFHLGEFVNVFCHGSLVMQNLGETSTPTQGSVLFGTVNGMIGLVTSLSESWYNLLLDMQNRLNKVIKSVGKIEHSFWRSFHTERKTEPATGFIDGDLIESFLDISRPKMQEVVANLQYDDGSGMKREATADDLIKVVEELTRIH
Chain of Aiolos (Q9UKT9 whole entry): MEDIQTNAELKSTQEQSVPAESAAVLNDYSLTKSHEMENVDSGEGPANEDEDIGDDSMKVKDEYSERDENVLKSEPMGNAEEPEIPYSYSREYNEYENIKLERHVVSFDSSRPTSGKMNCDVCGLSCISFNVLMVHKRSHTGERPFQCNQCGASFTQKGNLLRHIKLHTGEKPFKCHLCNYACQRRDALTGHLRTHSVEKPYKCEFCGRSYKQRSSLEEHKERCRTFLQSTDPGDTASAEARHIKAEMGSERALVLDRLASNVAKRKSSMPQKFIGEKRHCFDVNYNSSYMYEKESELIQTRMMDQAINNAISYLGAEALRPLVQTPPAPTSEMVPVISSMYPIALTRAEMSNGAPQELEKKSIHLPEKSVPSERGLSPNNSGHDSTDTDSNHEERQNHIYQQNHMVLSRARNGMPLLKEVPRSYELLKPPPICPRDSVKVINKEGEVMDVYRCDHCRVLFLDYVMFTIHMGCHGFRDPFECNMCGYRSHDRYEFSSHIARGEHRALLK
Chain of GR (P04150 whole entry): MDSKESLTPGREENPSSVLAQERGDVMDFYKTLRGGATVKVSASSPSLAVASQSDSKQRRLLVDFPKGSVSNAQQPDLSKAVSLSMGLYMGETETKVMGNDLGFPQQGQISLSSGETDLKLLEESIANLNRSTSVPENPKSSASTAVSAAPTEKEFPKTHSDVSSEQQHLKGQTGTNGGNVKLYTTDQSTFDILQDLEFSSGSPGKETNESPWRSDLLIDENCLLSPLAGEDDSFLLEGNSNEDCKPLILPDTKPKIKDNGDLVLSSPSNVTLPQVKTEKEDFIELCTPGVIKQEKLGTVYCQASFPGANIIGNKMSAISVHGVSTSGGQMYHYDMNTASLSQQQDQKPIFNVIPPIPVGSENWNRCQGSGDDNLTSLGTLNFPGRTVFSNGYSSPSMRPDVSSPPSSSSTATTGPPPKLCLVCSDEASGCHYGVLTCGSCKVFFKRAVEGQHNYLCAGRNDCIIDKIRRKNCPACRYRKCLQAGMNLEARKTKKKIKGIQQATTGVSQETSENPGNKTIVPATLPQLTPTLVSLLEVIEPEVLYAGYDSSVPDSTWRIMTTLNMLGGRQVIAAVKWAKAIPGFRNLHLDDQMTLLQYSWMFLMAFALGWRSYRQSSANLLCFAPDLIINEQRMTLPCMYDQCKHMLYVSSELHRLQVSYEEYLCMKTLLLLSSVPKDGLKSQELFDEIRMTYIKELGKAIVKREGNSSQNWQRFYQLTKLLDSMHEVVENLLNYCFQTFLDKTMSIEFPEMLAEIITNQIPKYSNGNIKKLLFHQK

Usually bioavailability stands for dose-corrected exposure relative to a reference, in per cent. The term half-life denotes how long it takes for the measured level to halve. The Cmax is the peak of the concentration-time curve. The solubility is the dissolved amount per volume that the medium holds. Turning to `O=C1CC[C@H](N2Cc3cc(N4CCN(CC5CCN(c6ccc([C@@H]7c8ccc(O)cc8CC[C@@H]7c7ccccc7)cc6)CC5)CC4)ccc3C2=O)C(=O)N1` [Compound A, (S)-3-(5-(4-((1-(4-((1R,2S)-6-hydroxy-2-phenyl-1,2,3,4-tetrahydronaphthalen-1-yl)phenyl)piperidin-4-yl)methyl)piperazin-1-yl)-1-oxoisoindolin-2-yl)piperidine-2,6-dione], the binding entry on GR is reported as “bound”. Also, the bidirectional permeability result in the data set on Caco-2 cells was “Similarly low bidirectional permeability”. Moreover, in data set [1] (read-out: permeability apical to basolateral), the Papp A→B at 1.125 pM was determined as 1.33 ×10⁻⁶ cm/s. Moreover, the Papp B→A at 1.125 pM in data set [1] (read-out: permeability basolateral to apical) worked out at 0.08 ×10⁻⁶ cm/s. The frequency of micronuclei result in data set [2] is recorded as “did not induce biologically relevant increases”. Besides, the bioavailability in data set [3] (mouse, dog, monkey, po, range across species) is 27 to 65%. The compound also showed a half-life in data set [3] (mouse, dog, monkey, range across species) of 2.1 to 8.2 h. In addition, the Vd in data set [3] (intravenous, read-out: VSS) is 6 L/kg. Moreover, in [4] (both sexes, beagle, in vivo, 400 mg/kg single oral, sexes combined), the highest concentration (Cmax) was 25000 ng/mL. Also, the AUC in [4] (both sexes, beagle, in vivo, 400 mg/kg single oral, sexes combined, read-out: mean AUC24) worked out at 349 µg·h/mL. In addition, in data set [4] (200 or 400 mg/kg single oral, fecal changes, emesis at 400), the tolerability result is reported as “tolerated”. Also, the “degradation of Aiolos” value at Aiolos is on record as “did not degrade”. In [5], this compound gave a solubility of 1.5 µg/mL (≈ 2.07 µM). In addition, the “developmental NOAEL” value in data set [6] is “could not be established”. In addition, in the data set on reticulocytes, the “chromosomal damage in reticulocytes” value is on record as “did not induce chromosomal damage”.
